Measured values taken from patent US20230256047A1, “METHODS AND COMPOSITIONS FOR THE TREATMENT OF MUSCULAR DYSTROPHY” (STEALTH BIOTHERAPEUTICS INC., priority 2020, published 2023).
Square brackets hold non-standard residues; d marks the D form. Peptide text beside a SMILES is read from it. Dmt = Cc1cc(O)cc(C)c1C[C@H](N)C(=O)O; Orn = NCCC[C@H](N)C(=O)O

Experiments:
Format in all cases: in vivo
D2-mdx mice = experiment: Echocardiography in D2-mdx mouse model; details: treated vs untreated D2-mdx mice; daily IP 1.0 or 5.0 mg/kg for 10-15 weeks
Procedure: Animals and Care: The DBA2 (a.k.a. D2-mdx) congenic strain of mdx mouse will be used for these studies. DBA/2J mice will be used as the wildtype control group. Animals will be obtained from appropriate sources (e.g. Jackson Labs). Animals will be housed at a density of up to five males or five females per cage under specific pathogen-free conditions in rooms with a 12-h light/12-h dark cycle at a temperature of 18-23° C. and 40-60% humidity. All experiments involving mice in this study will be performed in accordance with all applicable laws and regulations.
Echocardiography: In order to assess the cardiac function of mice in vivo, echocardiography will be performed on sedated mice. Mice will first be anesthetized (e.g. with 5% isoflurane mixed with 100% oxygen at 1.0 1/min flow) and then maintained under anesthesia (e.g. with 1.5% isoflurane/oxygen flow. Ophthalmic ointment can be placed on the eyes of the animals to prevent drying of the cornea while the mouse was anesthetized and tested. After anesthetic induction, the animals will be placed on a thermostatically controlled heated platform, where anesthesia can be maintained by delivery through a close-fitting facemask. A heating lamp can also be used to keep the heart rate and body temperature constant at physiological status during echocardiography.
During the examination, the animal’s heart rate will be monitored through the use of an electrocardiograph. The mouse’s heart rate and body temperature will be monitored continuously during the scanning. Echocardiography will be performed using an appropriate apparatus (e.g. Vevo770 ultrasound machine (VisualSonics, Toronto, Canada). The 2-D (B-mode), M-mode and Doppler images will be acquired from a modified parasternal long axis view, parasternal short axis view, suprasternal notch view and apical three-chamber view. The heart rate (BPM), fractional shortening, EF, stroke volume and cardiac output will be obtained for cardiac function assessment using measurements from the modified parasternal short axis view in the M-mode. Qualitative and quantitative measurements will be recorded using offline workstation software, and post-imaging analysis will be performed.
Study Design • 1. N=40-60 mice total assigned to following groups • a. Wildtype control - untreated, n=10-15 • b. mdx, vehicle treated, n=10-15 • c. mdx, daily IP elamipretide 1.0 mg/kg, n=10-15 • d. mdx, daily IP elamipretide 5.0 mg/kg, n=10-15 • 2. Dosing to begin at 4-6 weeks of age and continue for 10-15 weeks • a. Weekly retroorbital eye bleeds will be taken to provide serum for biomarker analysis • 3. In-life endpoints • a. Weekly body weight will be taken • b. Measurements of weekly voluntary wheel running will be determined • i. Total distance (m) • ii. Normalized distance (m/kg) • c. Echocardiogram (at least at week 18 & end of study but possibly more often, including possibly bi-monthly). The following parameters will be accessed. • i. Ejection fraction (%) • ii. Fractional shortening (%) • iii. Stroke volume (uL) • iv. Cardiac output (mL) • v. Heart rate (bpm) • 4. Endpoints post-necropsy • a. Serum analysis for creatine kinase • b. Histology of heart and inflammation and fibrosis

DMD KO rabbits = experiment: Body weight and survival in DMD KO rabbit model; details: treated DMD KO rabbits vs untreated control group of DMD KO rabbits; 0.5 to 5 mg/kg once daily i.p., approximately 3-5 months
Excerpt: Rabbits: The DMD KO rabbits used in this study will be obtained from the Laboratory Animal Center of Jilin University or prepared as described in Sui et al., Disease Models & Mechanisms 11 (2018). […] New Zealand rabbits (WT) will be used as controls.
Body Weight & Survival Curve: The body weight of age- and sex-matched WT and DMD KO rabbits will be measured biweekly. All data will be expressed as the mean±s.e.m., and a minimum of three individual animals of each genotype will be used in all experiments.
Study Design: At approximately 3-4 weeks of age, rabbits will be administered peptide (or a mixture of peptides) dissolved in sterile saline in dose(s) ranging from 0.5 to 5 mg/kg, once daily via intraperitoneal (i.p.) injection. The control group will be given placebo (sterile saline). Rabbits will be treated daily with peptide (or a mixture of peptides) or saline vehicle control, with treatment lasting approximately 3-5 months. For example, the peptide used could be a peptide of Formula A-1 (i.e. H-D-Arg-2′6′-Dmt-Lys-Phe-NH2). Echocardiograms will be collected monthly until animals are approximately 4-6 months of age or end of life. At the time of death, tissues will be harvested and variables described above will be collected.

[1] = system: Subjects suspected of having or diagnosed as having DMD or BMD and taking corticosteroids and/or Eteplirsen, Golodirsen or Casimersen; experiment: Treatment of cardiomyopathy in human subjects with DMD or BMD taking corticosteroids and/or Eteplirsen, Golodirsen or Casimersen; details: for signs or symptoms of cardiomyopathy associated with DMD or BMD: human subjects taking corticosteroids and/or Eteplirsen, Golodirsen or Casimersen, daily subcutaneous 0.5-5.0 mg/kg/day or weekly intravenous 0.05-1.0 mg/kg/hr. for up to 4 hours; for effect of combination with corticosteroids and/or Eteplirsen, Golodirsen or Casimersen on signs or symptoms of cardiomyopathy: human subjects, compared to peptide alone, or corticosteroids and/or Eteplirsen, Golodirsen or Casimersen alone
Procedure: Subjects suspected of having or diagnosed as having DMD or BMD and taking corticosteroids and/or Eteplirsen (Exondys 51®), Golodirsen (Vyondys 53™)or Casimersen (Amondys 45™) are separately, sequentially, or simultaneously subcutaneously administered a daily dose of H-D-Arg-2′6′-Dmt-Lys-Phe-NH2 or H-D-Arg-2′6′-Dmt-Lys-Phe-OH (e.g. with 0.5-5.0 mg/kg/day) or a weekly intravenous administration of H-D-Arg-2′6′-Dmt-Lys-Phe-NH2 or H-D-Arg-2′6′-Dmt-Lys-Phe-OH (e.g. with 0.05-1.0 mg/kg/hr. for up to 4 hours). Subjects will be regularly evaluated (e.g., weekly, bi-weekly, monthly, etc.) for the presence and/or severity of signs and symptoms of cardiomyopathy associated with DMD or BMD including, but not limited to, impaired left ventricular dynamics, e.g., reduced ejection fraction, reduced shortening fraction, reduced stroke volume, and/or reduced cardiac output, and elevated levels serum biomarkers associated with myocardial fibrosis, such as, e.g., elevated levels of carboxy terminal peptide of procollagen type I (PICP) and/or amino terminal propeptide of procollagen type III. Treatments are maintained at least until such a time as one or more signs or symptoms of cardiomyopathy associated with DMD or BMD are ameliorated or eliminated. The study may be conducted in a randomized withdrawal trial (e.g. randomized, double-blind, placebo-controlled withdrawal trial) to assess the impact of the peptide on the subjects followed by the impact of its withdrawal relative to a control group still receiving the peptide.

[2] = system: Subjects suspected of having or diagnosed as having DMD or BMD; experiment: Treatment of cardiomyopathy in human subjects diagnosed with muscular dystrophy; details: daily subcutaneous 0.5-5.0 mg/kg/day or weekly intravenous 0.05-1.0 mg/kg/hr. for up to 4 hours
Procedure: Subjects suspected of having or diagnosed as having DMD or BMD receive daily subcutaneous administration of H-D-Arg-2′6′-Dmt-Lys-Phe-NH2 or H-D-Arg-2′6′-Dmt-Lys-Phe-OH (e.g. with 0.5-5.0 mg/kg/day). Alternatively, subjects suspected of having or diagnosed as having DMD or BMD receive weekly intravenous administration of H-D-Arg-2′6′-Dmt-Lys-Phe-NH2 or H-D-Arg-2′6′-Dmt-Lys-Phe-OH (e.g. with 0.05-1.0 mg/kg/hr. for up to 4 hours). In some cases, the subjects could be co-administered a drug known to increase or correct the production of dystrophin in the subject, such as a phosphorodiamidate morpholino oligomer (PMO) such as Eteplirsen (Exondys 51®), Golodirsen (Vyondys 53™) or Casimersen (Amondys 45™) or a PPMO. Subjects will be regularly evaluated (e.g., weekly, bi-weekly, monthly, etc.) for the presence and/or severity of signs and symptoms of cardiomyopathy associated with DMD or BMD including, but not limited to, impaired left ventricular dynamics, e.g., reduced ejection fraction, reduced shortening fraction, reduced stroke volume, and/or reduced cardiac output, and elevated levels serum biomarkers associated with myocardial fibrosis, such as, e.g., elevated levels of carboxy terminal peptide of procollagen type I (PICP) and/or amino terminal propeptide of procollagen type III. […]

SMILES | cardiac output (D2-mdx mice) | fractional shortening (FS) (D2-mdx mice) | lifespan (DMD KO rabbits) | signs or symptoms of cardiomyopathy associated with DMD or BMD [1] | effect of combination with corticosteroids and/or Eteplirsen, Golodirsen or Casimersen on signs or symptoms of cardiomyopathy [1] | signs or symptoms of cardiomyopathy associated with DMD or BMD [2]
Cc1cc(O)cc(C)c1C[C@H](NC(=O)[C@H](N)CCCNC(=N)N)C(=O)N[C@@H](CCCCN)C(=O)N[C@@H](Cc1ccccc1)C(N)=O [Compound A-1, H-D-Arg-2′6′-Dmt-Lys-Phe-NH2] (H-[dR][Dmt]KF-NH2) | higher | higher | statistically significant increase in lifespan | delayed or reduced severity or elimination | synergistic effects | reduced severity or elimination
Cc1cc(O)cc(C)c1C[C@H](NC(=O)[C@H](N)CCCNC(=N)N)C(=O)N[C@@H](CCCCN)C(=O)N[C@@H](Cc1ccccc1)C(=O)O [Compound A-2, H-D-Arg-2′6′-Dmt-Lys-Phe-OH] (H-[dR][Dmt]KF-OH) | higher | higher | statistically significant increase in lifespan | delayed or reduced severity or elimination | synergistic effects | reduced severity or elimination
Cc1cc(O)cc(C)c1C[C@H](NC(=O)[C@H](N)CCCNC(=N)N)C(=O)N[C@@H](CCCNC(=N)N)C(=O)N[C@@H](Cc1ccccc1)C(N)=O [Compound A-3] (H-[dR][Dmt]RF-NH2) | higher | higher | statistically significant increase in lifespan | – | – | –
Cc1cc(O)cc(C)c1C[C@H](NC(=O)[C@H](N)CCCNC(=N)N)C(=O)N[C@@H](CCCNC(=N)N)C(=O)N[C@@H](Cc1ccccc1)C(=O)O [Compound A-4] (H-[dR][Dmt]RF-OH) | higher | higher | statistically significant increase in lifespan | – | – | –
Cc1cc(O)cc(C)c1C[C@H](NC(=O)[C@H](N)CCCNC(=N)N)C(=O)N[C@@H](CCCN)C(=O)N[C@@H](Cc1ccccc1)C(N)=O [Compound A-5] (H-[dR][Dmt][Orn]F-NH2) | higher | higher | statistically significant increase in lifespan | – | – | –
Cc1cc(O)cc(C)c1C[C@H](NC(=O)[C@H](N)CCCNC(=N)N)C(=O)N[C@@H](CCCN)C(=O)N[C@@H](Cc1ccccc1)C(=O)O [Compound A-6] (H-[dR][Dmt][Orn]F-OH) | higher | higher | statistically significant increase in lifespan | – | – | –
N=C(N)NCCC[C@@H](N)C(=O)N[C@@H](Cc1ccc(O)cc1)C(=O)N[C@@H](CCCCN)C(=O)N[C@@H](Cc1ccccc1)C(N)=O [Compound A-7] (H-[dR]YKF-NH2) | higher | higher | statistically significant increase in lifespan | – | – | –
N=C(N)NCCC[C@@H](N)C(=O)N[C@@H](Cc1ccc(O)cc1)C(=O)N[C@@H](CCCCN)C(=O)N[C@@H](Cc1ccccc1)C(=O)O [Compound A-8] (H-[dR]YKF-OH) | higher | higher | statistically significant increase in lifespan | – | – | –
